Source: ChEMBL document CHEMBL1201862, “PubChem BioAssay data set” (2004)
Where a name gives a salt, the structure may show the parent alone.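 Following 48 hours of exposure in 96-well plates, responses at five concentrations were used to interpolate endpoints linearly. Here, GI50 denotes the concentration required for 50% inhibition of growth.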 Calls of active or inactive are those of the source. No stated cut-off is given here; in the data, active = GI50 up to about 1.1 µM and inactive = higher.

Legend:
Test in all cases: DTP human tumour cell line panel, 48 h
MCF7 = test system: MCF7
NCI/ADR-RES = test system: NCI/ADR-RES
SNB-75 = test system: SNB-75
EKVX = test system: EKVX
SK-MEL-28 = test system: SK-MEL-28
SF-268 = test system: SF-268
Malme-3M = test system: Malme-3M
CCRF-CEM = test system: CCRF-CEM
COLO 205 = test system: COLO 205
U-251 = test system: U-251
M14 = test system: M14
MOLT-4 = test system: MOLT-4
SK-MEL-2 = test system: SK-MEL-2
RPMI-8226 = test system: RPMI-8226
OVCAR-8 = test system: OVCAR-8
HCC 2998 = test system: HCC 2998
UACC-257 = test system: UACC-257
SW-620 = test system: SW-620
RXF 393 = test system: RXF 393
A498 = test system: A498

Measured: GI50

CCOC(=O)c1nc2ccccc2nc1Nc1ccc(Cl)c(Cl)c1
inactive: MCF7 70 µM | NCI/ADR-RES > 100 µM | SNB-75 20.9 µM | EKVX 60.5 µM | SK-MEL-28 > 100 µM | SF-268 37.6 µM | Malme-3M 16.2 µM | CCRF-CEM > 10 µM | COLO 205 67.9 µM | U-251 23.7 µM | M14 57.8 µM | MOLT-4 > 100 µM | SK-MEL-2 89.7 µM | RPMI-8226 57.7 µM | OVCAR-8 29.9 µM | HCC 2998 > 100 µM

C1CSCC2(COC2)CSCCSCC2(COC2)CS1
inactive: MCF7 > 100 µM | NCI/ADR-RES > 100 µM | SNB-75 35.6 µM | EKVX > 100 µM | SK-MEL-28 > 100 µM | SF-268 > 100 µM | CCRF-CEM > 100 µM | COLO 205 > 100 µM | U-251 > 100 µM | UACC-257 > 100 µM | M14 > 100 µM | MOLT-4 > 100 µM | SW-620 > 100 µM | OVCAR-8 > 100 µM | HCC 2998 > 100 µM

NCCCN(CCCN)CCCNCc1c2ccccc2c(CNCCCN(CCCN)CCCN)c2ccccc12
inactive: RXF 393 21.4 µM | SNB-75 16.5 µM | EKVX 12.8 µM | SK-MEL-28 7.16 µM | SF-268 18.3 µM | Malme-3M 8.07 µM | CCRF-CEM > 100 µM | COLO 205 8.09 µM | U-251 16.7 µM | UACC-257 13.7 µM | M14 13.6 µM | MOLT-4 26.1 µM | SK-MEL-2 23.7 µM | SW-620 13.3 µM | RPMI-8226 3.24 µM | OVCAR-8 12.4 µM | HCC 2998 4.51 µM | A498 28.2 µM

CC(C)N1C(C)[C@@H](c2ccccc2)O[P@@]1(=O)CC1=CCCCC1 (some centres not stated)
inactive: RXF 393 68.7 µM | SNB-75 > 100 µM | EKVX > 100 µM | SK-MEL-28 > 100 µM | SF-268 > 100 µM | Malme-3M > 100 µM | CCRF-CEM 48.5 µM | COLO 205 > 100 µM | U-251 > 100 µM | UACC-257 > 100 µM | M14 > 100 µM | MOLT-4 80.7 µM | SK-MEL-2 > 100 µM | SW-620 > 100 µM | RPMI-8226 49.1 µM | OVCAR-8 > 100 µM | HCC 2998 > 100 µM | A498 > 100 µM

C/C(=N\O)c1sc(-n2nc(-c3ccccc3)cc2-c2ccccc2)nc1C
inactive: RXF 393 > 10 µM | SNB-75 14.6 µM | EKVX 6.35 µM | SK-MEL-28 12.9 µM | SF-268 12.1 µM | Malme-3M 16.9 µM | CCRF-CEM 12.3 µM | COLO 205 > 10 µM | U-251 11.7 µM | UACC-257 13.6 µM | M14 13.2 µM | MOLT-4 11.1 µM | SK-MEL-2 28.3 µM | SW-620 13.1 µM | RPMI-8226 12.2 µM | OVCAR-8 12 µM | HCC 2998 13.6 µM | A498 25.4 µM

N#CC1=C(c2ccccc2)C(O)(c2ccccc2)NC1=O (configuration not stated)
inactive: RXF 393 > 100 µM | SNB-75 > 100 µM | EKVX > 100 µM | SK-MEL-28 > 100 µM | SF-268 > 100 µM | Malme-3M 25.2 µM | CCRF-CEM 70.5 µM | COLO 205 > 100 µM | U-251 > 100 µM | UACC-257 > 100 µM | M14 52.4 µM | MOLT-4 > 100 µM | SK-MEL-2 99.1 µM | SW-620 > 100 µM | RPMI-8226 75 µM | OVCAR-8 > 100 µM | HCC 2998 > 100 µM | A498 24.6 µM

CC1(C)O[C@@H](CP(c2ccccc2)c2ccccc2)[C@H](CP(c2ccccc2)c2ccccc2)O1
active: COLO 205 0.632 µM
inactive: NCI/ADR-RES 12.4 µM | RXF 393 8.15 µM | SNB-75 6.55 µM | EKVX 6.38 µM | SK-MEL-28 12.3 µM | SF-268 5.96 µM | Malme-3M 5.83 µM | CCRF-CEM 2.4 µM | U-251 3.66 µM | UACC-257 6.98 µM | M14 5.94 µM | MOLT-4 2.69 µM | SW-620 17.2 µM | RPMI-8226 3.72 µM | OVCAR-8 4.06 µM | A498 12.6 µM

Cc1nn(C)cc1P(=S)(c1ccccc1)c1ccccc1
inactive: RXF 393 > 100 µM | SNB-75 24.4 µM | EKVX > 100 µM | SK-MEL-28 > 100 µM | SF-268 81.8 µM | Malme-3M 58.6 µM | CCRF-CEM 31.8 µM | COLO 205 48.5 µM | U-251 92.5 µM | UACC-257 97.1 µM | M14 71.6 µM | MOLT-4 30.3 µM | SK-MEL-2 > 100 µM | SW-620 51.9 µM | RPMI-8226 28.7 µM | OVCAR-8 54.3 µM | HCC 2998 > 100 µM | A498 > 100 µM

COc1ccc(/C=C2/CCCC/C2=N/O)cc1
inactive: RXF 393 40.8 µM | SNB-75 31.6 µM | EKVX > 100 µM | SK-MEL-28 > 100 µM | SF-268 57.9 µM | Malme-3M > 100 µM | CCRF-CEM 51.6 µM | COLO 205 > 100 µM | U-251 > 100 µM | UACC-257 > 100 µM | M14 > 100 µM | MOLT-4 42.2 µM | SK-MEL-2 > 100 µM | SW-620 > 100 µM | RPMI-8226 > 100 µM | OVCAR-8 > 100 µM | HCC 2998 > 100 µM | A498 24.2 µM

Cc1ccc(S(=O)(=O)NC(=O)NC(CC(N)=O)C(=O)O)cc1 (configuration not stated)
inactive: MCF7 > 100 µM | NCI/ADR-RES > 100 µM | RXF 393 > 100 µM | SNB-75 > 100 µM | SK-MEL-28 > 100 µM | SF-268 > 100 µM | Malme-3M > 100 µM | CCRF-CEM > 100 µM | COLO 205 > 100 µM | U-251 > 100 µM | UACC-257 > 100 µM | M14 > 100 µM | MOLT-4 > 100 µM | SK-MEL-2 > 100 µM | SW-620 > 100 µM | RPMI-8226 > 100 µM | OVCAR-8 > 100 µM

O=S1(=O)c2ccccc2NC(=S)CC1c1ccccc1 (configuration not stated)
inactive: MCF7 > 100 µM | NCI/ADR-RES > 100 µM | RXF 393 > 100 µM | SNB-75 > 100 µM | EKVX > 100 µM | SK-MEL-28 > 100 µM | SF-268 > 100 µM | Malme-3M > 100 µM | CCRF-CEM > 100 µM | COLO 205 36.6 µM | U-251 > 100 µM | UACC-257 24.8 µM | M14 > 100 µM | MOLT-4 > 100 µM | RPMI-8226 > 100 µM | OVCAR-8 72.9 µM

CC(C)OC(=O)NCCn1cc(-c2ccccc2)nn1
inactive: MCF7 > 100 µM | NCI/ADR-RES > 100 µM | SNB-75 > 100 µM | EKVX > 100 µM | SK-MEL-28 > 100 µM | SF-268 > 100 µM | Malme-3M > 100 µM | CCRF-CEM > 100 µM | COLO 205 > 100 µM | U-251 > 100 µM | UACC-257 > 100 µM | M14 > 100 µM | MOLT-4 > 100 µM | SK-MEL-2 > 100 µM | RPMI-8226 > 100 µM | OVCAR-8 > 100 µM | HCC 2998 > 100 µM

O=C(O)c1cccc(S(=O)(=O)NN2C(=O)CSC2c2ccc(Cl)cc2Cl)c1 (configuration not stated)
inactive: MCF7 32.1 µM | RXF 393 37.2 µM | SNB-75 30.2 µM | EKVX 68.5 µM | SK-MEL-28 23.2 µM | SF-268 36.2 µM | Malme-3M 82.4 µM | CCRF-CEM 9.75 µM | COLO 205 > 100 µM | U-251 21.4 µM | UACC-257 35.2 µM | M14 34.5 µM | MOLT-4 28.8 µM | SK-MEL-2 32.3 µM | SW-620 34.2 µM | RPMI-8226 97.3 µM | OVCAR-8 15.4 µM | HCC 2998 > 100 µM | A498 > 100 µM

COC(=O)C1=C(c2ccc3c(c2)OCO3)OC(c2ccc3c(c2)OCO3)C1 (configuration not stated)
inactive: RXF 393 68.5 µM | SNB-75 > 100 µM | EKVX > 100 µM | SK-MEL-28 > 100 µM | SF-268 > 100 µM | Malme-3M > 100 µM | CCRF-CEM > 100 µM | COLO 205 66.1 µM | U-251 93.8 µM | UACC-257 69.7 µM | M14 > 100 µM | MOLT-4 16.9 µM | SK-MEL-2 > 100 µM | SW-620 67 µM | RPMI-8226 > 100 µM | OVCAR-8 > 100 µM | HCC 2998 > 100 µM | A498 > 100 µM

O=C(OCCN1CCCCCC1)C(c1ccsc1)C1CCCCC1 (configuration not stated) [CETIEDIL CITRATE]
inactive: MCF7 16.7 µM | NCI/ADR-RES 15.7 µM | SNB-75 16.1 µM | EKVX 17.1 µM | SK-MEL-28 20.3 µM | SF-268 17.6 µM | Malme-3M 14.4 µM | CCRF-CEM 15.7 µM | COLO 205 10.5 µM | U-251 17.2 µM | UACC-257 18.8 µM | M14 17.3 µM | MOLT-4 21.4 µM | SW-620 16.6 µM | RPMI-8226 13.5 µM | OVCAR-8 18.6 µM | HCC 2998 15.2 µM

CCOC(=O)C1CCCCc2sc(N)c(C#N)c21 (configuration not stated)
inactive: MCF7 > 100 µM | RXF 393 > 100 µM | SNB-75 > 100 µM | EKVX > 100 µM | SK-MEL-28 > 100 µM | Malme-3M 71.1 µM | COLO 205 > 100 µM | U-251 > 100 µM | UACC-257 > 100 µM | M14 > 100 µM | MOLT-4 > 100 µM | SK-MEL-2 > 100 µM | SW-620 > 100 µM | RPMI-8226 > 100 µM | OVCAR-8 > 100 µM | HCC 2998 > 100 µM | A498 > 100 µM
